Key:
[1] = tested on: rat renal glomerular endothelial cells; assay: NO and ONOO^− release ex vivo from glomerular endothelial cells exposed to oxLDL and high glucose (Example 13); type: cell-based; conditions: 10.0 μM, 1 hr; oxLDL 11 mg/dL and glucose 300 mg/dL; vs vehicle
Experimental: Healthy male Wistar Kyoto (WKY) rats, aged 7-9 weeks and weighing 250±20 g, were obtained from inbred colonies (National Institutes of Health, Bethesda, Md.). Animals were housed in a controlled environment that provided food and water ad libitum prior to the study. […] Animals were sacrificed and tissue samples obtained immediately for experimentation. All procedures were conducted in accordance with standard Institutional Animal Care and Use Committee guidelines and conformed to the Guide for the Care and Use of Laboratory Animals published by the US National Institutes of Health.
Immediately after sacrificing the rats, kidneys were removed, cut into 100 μm sections and transferred to a separate organ chamber containing Dulbecco's phosphate buffered saline ([…]) and […] at pH 7.4. […]
The NO/ONOO− nanosensor was positioned near the surface of the endothelial cells using a computer-controlled M3301 micromanipulator (x-y-z resolution of 0.2 μm) and microscope (both from World Precision Instruments, Berlin, Germany) fitted with a CD camera. Each analyte was measured from amperograms and standard calibration curves collected under maximum current. […] Changes in current (proportional to the molar concentrations of NO or ONOO^− released) were monitored continuously immediately following CaI stimulation.

human LDL = assay: Copper-induced oxidation of unfractionated LDL, TBARS (Example 7); type: biochemical; conditions: 1 hour
Experimental: An experiment to study the antioxidant effect of EPA in LDL and small dense LDL (“sdLDL”) was performed. LDL and sdLDL were isolated from the plasma of healthy volunteers by iodixanol density gradient ultracentrifugation, and adjusted to a final apolipoprotein concentration of 2 mg/mL. […] Vitamin E was also incubated with sample aliquots as a positive control.

[2] = Glucose-induced membrane lipid peroxidation (LOOH, CHOD-iodide assay) in DLPC/cholesterol vesicles (Examples 4, 5); type: biochemical; conditions: 1.0 μM; glucose 200 mg/dL; 96 hours
Experimental: All test compounds were further diluted in ethanol or aqueous buffer as needed. Glucose was prepared in saline buffer (0.5 mM HEPES, 154 mM NaCl, pH 7.3) at 11.0 mM (200 mg/dL). CHOD-iodide color reagent (stock) was prepared, with slight modification, as described by from El-Saadani et al. (J. […] Samples were shell-dried under nitrogen gas and placed under vacuum for 1 h to remove residual solvent. […] Lipid suspensions were then vortexed for 3 min at ambient temperature to form MLVs. All MLV samples were subjected to time-dependent autoxidation by incubating at 37° C. in an uncovered, shaking water bath. This method allows lipid peroxidation to occur gradually without requiring the use of exogenous initiators. Small aliquots (5-100 μL) of each sample were removed, immediately following MLV preparation (0 hour) and after exposing samples to oxidative conditions for 72 or 96 hour, and combined with 1.0 mL of activated CHOD-iodide color reagent. Aliquot volume was reduced with each successive time point to ensure that spectrophotometric readings were within the optimal adsorption range. Test samples were covered and incubated in darkness at room temperature for at least 4 hr. Sample absorbances were then measured against a CHOD blank at 365 nm using a Beckman DU-640 spectrophotometer. The CHOD colorimetric assay is based on the oxidation of iodide (I^−) by lipid hydroperoxide (LOOH) to form triiodide the quantity of which is directly proportional to the amount of LOOH present in the lipid sample. The molar absorptivity (ε) of I3^− is 2.46×10^4 M^−1 cm^−1 at 365 nm. […] All MLV samples were subjected to time-dependent autoxidation by incubating at 37° C. in an uncovered, shaking water bath. This method allows lipid peroxidation to occur gradually without requiring the use of exogenous initiators. Small aliquots (5-100 μL) of each sample were removed, immediately following MLV preparation (0 hr) and after exposing samples to oxidative conditions for 72 or 96 hr, and combined with 1.0 mL of activated CHOD-iodide color reagent. Aliquot volume was reduced with each successive time point to ensure that spectrophotometric readings were within the optimal adsorption range. Test samples were covered and incubated in darkness at room temperature for at least 4 hr. Sample absorbances were then measured against a CHOD blank at 365 nm using a Beckman DU-640 spectrophotometer. […] The molar absorptivity (ε) of I3^− is 2.46×10^4 M^−1 cm^−1 at 365 nm.

human sdLDL = assay: Copper-induced sdLDL oxidation, TBARS (Example 7); type: biochemical
Experimental: An experiment to study the antioxidant effect of EPA in LDL and small dense LDL (“sdLDL”) was performed. LDL and sdLDL were isolated from the plasma of healthy volunteers by iodixanol density gradient ultracentrifugation, and adjusted to a final apolipoprotein concentration of 2 mg/mL. […] Lipid oxidation was initiated with 10 μM CuSO4 and monitored by the colorimetric detection of thiobarbituric acid reactive substances (TBARS) for 1 hr. Vitamin E was also incubated with sample aliquots as a positive control.

HMG-CoA reductase = biological target: T1, HMG-CoA reductase (Homo sapiens, UniProt P04035); conditions: metabolized by hepatic cytochrome P450; cited from earlier work
T1 sequence (P04035 1-888): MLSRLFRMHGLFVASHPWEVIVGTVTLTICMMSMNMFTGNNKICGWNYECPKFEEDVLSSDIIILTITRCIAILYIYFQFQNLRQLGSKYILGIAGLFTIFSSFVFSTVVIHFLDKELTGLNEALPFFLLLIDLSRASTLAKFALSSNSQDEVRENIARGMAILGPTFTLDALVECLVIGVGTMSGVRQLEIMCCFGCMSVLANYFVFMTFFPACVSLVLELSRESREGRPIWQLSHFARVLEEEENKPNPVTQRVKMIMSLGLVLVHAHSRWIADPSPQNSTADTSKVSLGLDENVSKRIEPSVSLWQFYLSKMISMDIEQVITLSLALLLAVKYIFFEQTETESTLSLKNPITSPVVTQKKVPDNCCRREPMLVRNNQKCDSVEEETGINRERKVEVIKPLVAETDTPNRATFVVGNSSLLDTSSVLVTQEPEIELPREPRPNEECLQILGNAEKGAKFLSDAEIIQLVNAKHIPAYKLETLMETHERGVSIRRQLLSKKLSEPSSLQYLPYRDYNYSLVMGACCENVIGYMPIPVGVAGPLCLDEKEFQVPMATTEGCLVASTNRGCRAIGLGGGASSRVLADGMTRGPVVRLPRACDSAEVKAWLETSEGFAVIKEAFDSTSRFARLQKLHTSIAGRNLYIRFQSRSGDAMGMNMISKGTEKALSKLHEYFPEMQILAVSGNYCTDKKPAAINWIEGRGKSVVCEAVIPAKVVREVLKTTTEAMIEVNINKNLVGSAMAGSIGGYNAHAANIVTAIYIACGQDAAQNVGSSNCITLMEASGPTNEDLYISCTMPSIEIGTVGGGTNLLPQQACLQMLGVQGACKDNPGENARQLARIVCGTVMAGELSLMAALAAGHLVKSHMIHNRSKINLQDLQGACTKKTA

For `CC(C)c1c(C(=O)Nc2ccccc2O)c(-c2ccccc2)c(-c2ccc(F)cc2)n1CC[C@@H](O)C[C@@H](O)CC(=O)O` [ATM, Atorvastatin ortho- (o-) hydroxy (active) metabolite], the “increase of NO release” value [1] was 205%, the “reduction of ONOO^− release” value [1] was 25% and the “effect on unfractionated LDL oxidation, dose dependence” value (human LDL) was “significant and dose-dependent inhibition of unfractionated LDL oxidation beginning at 1.0 μM”. For the same compound, the “antioxidant effect (LOOH formation)” value [2] was “separate and potent antioxidant effects”, the “inhibition of sdLDL oxidation” value (human sdLDL; 0.5 μM, 1 hr) was 5±5% and the “inhibition of sdLDL oxidation” value (human sdLDL; 1.0 μM, 1 hr, vs vehicle) was 18±5%. The “inhibition of sdLDL oxidation” value (human sdLDL; highest dose, 1 hr) was 90±2%.

In the case of `CC(C)c1c(C(=O)Nc2ccccc2)c(-c2ccccc2)c(-c2ccc(F)cc2)n1CC[C@@H](O)C[C@@H](O)CC(=O)O` [atorvastatin], the “effect on unfractionated LDL oxidation” value (human LDL; 10 μM) is given as “did not have any significant antioxidant activity”, the “share of circulating HMG-CoA reductase inhibitory activity accounted for by active metabolites” value (HMG-CoA reductase) is given as “approximately 70%” and the “effect on sdLDL oxidation compared to vehicle-treated controls” value (human sdLDL; 10 μM, 1 hour) is given as “did not have any significant antioxidant activity”. For the same compound, the “inhibition of TBARS formation / sdLDL oxidation” value (human sdLDL; 10 μM, 1 hr, vs vehicle) was 0.1±7%.
